Results from patent US9540343B2 (Gilead Sciences, Inc., priority 2011, dated 2017).

Legend:
in vitro = assay: in vitro
In short: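 Cytoprotection read-out: CellTiter-Glo chemiluminescence after 5 days at 37 °C of HIV-IIIb-infected MT-4 cells (m.o.i. 0.003) with compound in 10-point 3-fold dilutions, quadruplicate, 10% FBS. Cytotoxicity (CC50) measured identically without virus.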

HIV-IIIb = assay: Test A: Antiviral assay in MT4 cells; assay type: cell-based, HIV-1; settings: Human immunodeficiency virus 1, IIIB, MT4, 120 h, read-out: % inhibition at 2 μM, percent inhibition of virus-induced cell killing, from dose response curve at 2 uM drug; MT-4 cells infected with HIV-IIIb, 5 days, CellTiter-Glo
[1] = human, uninfected MT-4 cells, CC50 (nM), same protocol as Test A, CellTiter-Glo
[2] = human, CC50 (nM), uninfected MT-4 cells, same protocol as Test A, CellTiter-Glo

SMILES	CC50 at 5 days (in vitro; [1])	inhibition at 2 µM (HIV-IIIb)	CC50 at 5 days (in vitro; [2])
O=C(Cc1c[nH]c2ccc(F)cc12)NC(Cc1cc(F)cc(F)c1)c1nccnc1-c1ccc(Cl)cc1 (centres unmarked) [Example 459, N-(1-(3-(4-chlorophenyl)pyrazin-2-yl)-2-(3,5-difluorophenyl)ethyl)-2-(5-fluoro-1H-indol-3-yl)acetamide]	14200 nM	28%	
NC(=O)c1cc(-c2cccnc2[C@H](Cc2cc(F)cc(F)c2)NC(=O)Cn2cc(C3=CCCCC3)c(C(F)(F)F)n2)ccc1F [Example 460, (S)-5-(2-(1-(2-(4-cyclohexenyl-3-(trifluoromethyl)-1H-pyrazol-1-yl)acetamido)-2-(3,5-difluorophenyl)ethyl)pyridin-3-yl)-2-fluorobenzamide]	8970 nM	0%	
CCc1cc(C(F)(F)F)nn1CC(=O)N[C@@H](Cc1cc(F)cc(F)c1)c1ncccc1-c1ccc(F)c(C(N)=O)c1 [Example 461, (S)-5-(2-(2-(3,5-difluorophenyl)-1-(2-(5-ethyl-3-(trifluoromethyl)-1H-pyrazol-1-yl)acetamido)ethyl)pyridin-3-yl)-2-fluorobenzamide]	32000 nM	25%	
NC(=O)c1cc(-c2cccnc2[C@H](Cc2cc(F)cc(F)c2)NC(=O)Cn2cc(Br)c(C(F)(F)F)n2)ccc1F [Example 463, (S)-5-(2-(1-(2-(4-bromo-3-(trifluoromethyl)-1H-pyrazol-1-yl)acetamido)-2-(3,5-difluorophenyl)ethyl)pyridin-3-yl)-2-fluorobenzamide]	14700 nM	11%	
CS(=O)(=O)c1ccc2[nH]cc(CC(=O)N[C@@H](Cc3cc(F)cc(F)c3)c3ncccc3-c3ccc(F)c(C(N)=O)c3)c2c1 [Example 464, (S)-5-(2-(2-(3,5-difluorophenyl)-1-(2-(5-(methylsulfonyl)-1H-indol-3-yl)acetamido)ethyl)pyridin-3-yl)-2-fluorobenzamide]	> 53200 nM	119%	
NC(=O)c1cc(-c2cccnc2[C@H](Cc2cc(F)cc(F)c2)NC(=O)Cn2nc(C(F)(F)F)c3c2C2CC2C3=O)ccc1F (stereo partly drawn) [Example 465B, 5-(2-((1S)-2-(3,5-difluorophenyl)-1-(2-(4-oxo-3-(trifluoromethyl)-4,4-a,5,5a-tetrahydro-1H-cyclopropa[4,5]cyclopenta[1,2-c]pyrazol-1-yl)acetamido)ethyl)pyridin-3-yl)-2-fluorobenzamide]	> 53200 nM	3%	
NC(=O)c1cc(-c2cccnc2[C@H](Cc2cc(F)cc(F)c2)NC(=O)Cn2nc(C(F)(F)F)c3c2CCC2(C3)OCCO2)ccc1F [Example 468D, (S)-5-(2-(2-(3,5-difluorophenyl)-1-(2-(3′-(trifluoromethyl)-6′,7′-dihydrospiro[[1,3]dioxolane-2,5′-indazole]-1′(4′H)-yl)acetamido)ethyl)pyridin-3-yl)-2-fluorobenzamide]	> 53000 nM	14%	
NC(=O)c1cc(-c2cccnc2[C@H](Cc2cc(F)cc(F)c2)NC(=O)Cc2n[nH]c3ccccc23)ccc1F [Example 469, 5-(2-(1-(2-(1H-indazol-3-yl)acetamido)-2-(3,5-difluorophenyl)ethyl)pyridin-3-yl)-2-fluorobenzamide]	> 53200 nM	17%	
Nc1cc(-c2cccnc2[C@H](Cc2cc(F)cc(F)c2)NC(=O)Cc2c[nH]c3ccc(F)cc23)ccc1F [Example 470, (S)—N-(1-(3-(3-amino-4-fluorophenyl)pyridin-2-yl)-2-(3,5-difluorophenyl)ethyl)-2-(5-fluoro-1H-indol-3-yl)acetamide]	20800 nM	68%	
NC(=O)c1cc(-c2cccnc2[C@H](Cc2cc(F)cc(F)c2)NC(=O)Cn2ncc3c2CCCC3)ccc1F [Example 471, (S)-5-(2-(2-(3,5-difluorophenyl)-1-(2-(4,5,6,7-tetrahydro-1H-indazol-1-yl)acetamido)ethyl)pyridin-3-yl)-2-fluorobenzamide]	> 53200 nM	62%	
CC(=O)Nc1cc(-c2cccnc2[C@H](Cc2cc(F)cc(F)c2)NC(=O)Cc2c[nH]c3ccc(F)cc23)ccc1F [Example 473, (S)—N-(1-(3-(3-acetamido-4-fluorophenyl)pyridin-2-yl)-2-(3,5-difluorophenyl)ethyl)-2-(5-fluoro-1H-indol-3-yl)acetamide]	14600 nM	18%	
O=C(Cn1nc(C(F)(F)F)c2c1CCCC2)NC(Cc1cc(F)cc(F)c1)c1nccnc1-c1ccc(Cl)cc1 (centres unmarked) [Example 474, N-(1-(3-(4-chlorophenyl)pyrazin-2-yl)-2-(3,5-difluorophenyl)ethyl)-2-(3-(trifluoromethyl)-4,5,6,7-tetrahydro-1H-indazol-1-yl)acetamide]	9980 nM	17%	
Cc1cc2ncn(CC(=O)NC(Cc3cc(F)cc(F)c3)c3nccnc3-c3ccc(Cl)cc3)c2cc1C (centres unmarked) [Example 475, N-(1-(3-(4-chlorophenyl)pyrazin-2-yl)-2-(3,5-difluorophenyl)ethyl)-2-(5,6-dimethyl-1H-benzo[d]imidazol-1-yl)acetamide]	20400 nM	23%	
NC(=O)c1cc(-c2cccnc2[C@H](Cc2cc(F)cc(F)c2)NC(=O)C2(c3ccccc3)CC2)ccc1F [Example 477, (S)-5-(2-(2-(3,5-difluorophenyl)-1-(1-phenylcyclopropanecarboxamido)ethyl)pyridin-3-yl)-2-fluorobenzamide]	21400 nM	0%	
NC(=O)c1cccc(-c2cccnc2[C@H](Cc2cc(F)cc(F)c2)NC(=O)Cc2c[nH]c3ccccc23)c1 [Example 480, (S)-3-(2-(1-(2-(1H-indol-3-yl)acetamido)-2-(3,5-difluorophenyl)ethyl)pyridin-3-yl)benzamide]	27800 nM	93%	
Cc1cccc2[nH]cc(CC(=O)N[C@@H](Cc3cc(F)cc(F)c3)c3ncccc3-c3cccc(C(N)=O)c3)c12 [Example 481, (S)-3-(2-(2-(3,5-difluorophenyl)-1-(2-(4-methyl-1H-indol-3-yl)acetamido)ethyl)pyridin-3-yl)benzamide]	22900 nM	53%	
Cc1cc2cnn(CC(=O)N[C@@H](Cc3cc(F)cc(F)c3)c3ncccc3-c3ccc(F)c(C(N)=O)c3)c2cc1C [Example 485, (S)-5-(2-(2-(3,5-difluorophenyl)-1-(2-(5,6-dimethyl-1H-indazol-1-yl)acetamido)ethyl)pyridin-3-yl)-2-fluorobenzamide]	22200 nM	43%	
CC(=O)c1c(C)n(CC(=O)N[C@@H](Cc2cc(F)cc(F)c2)c2ncccc2-c2ccc(Cl)cc2)c2ccccc12 [Example 486, (S)-2-(3-acetyl-2-methyl-1H-indol-1-yl)-N-(1-(3-(4-chlorophenyl)pyridin-2-yl)-2-(3,5-difluorophenyl)ethyl)acetamide]		76%	7080 nM
O=C1Cc2c(cccc2-c2cccnc2[C@H](Cc2cc(F)cc(F)c2)NC(=O)Cn2nc(C(F)F)c3c2C(F)(F)CCC3(F)F)N1 [Example 489D, (S)-2-(3-(difluoromethyl)-4,4,7,7-tetrafluoro-4,5,6,7-tetrahydro-1H-indazol-1-yl)-N-(2-(3,5-difluorophenyl)-1-(3-(2-oxoindolin-4-yl)pyridin-2-yl)ethyl)acetamide]	20800 nM	97%	
O=C(Cn1nc(C(F)F)c2c1C(F)(F)CCC2(F)F)N[C@@H](Cc1cc(F)cc(F)c1)c1ncccc1-c1ccc2ccc(=O)[nH]c2c1 [Example 490D, (S)-2-(3-(difluoromethyl)-4,4,7,7-tetrafluoro-4,5,6,7-tetrahydro-1H-indazol-1-yl)-N-(2-(3,5-difluorophenyl)-1-(3-(2-oxo-1,2-dihydroquinolin-7-yl)pyridin-2-yl)ethyl)acetamide]	38000 nM	87%	
NCc1ccc2[nH]cc(CC(=O)N[C@@H](Cc3cc(F)cc(F)c3)c3ncccc3-c3ccc(Cl)cc3)c2c1 [Example 491F, (S)-2-(5-(aminomethyl)-1H-indol-3-yl)-N-(1-(3-(4-chlorophenyl)pyridin-2-yl)-2-(3,5-difluorophenyl)ethyl)acetamide]	7850 nM	18%	
NC(=O)c1cc(-c2cccnc2[C@H](Cc2cc(F)cc(F)c2)NC(=O)Cn2nc(C(F)(F)F)c3c2CCC3=O)ccc1F [Example 492B, (S)-5-(2-(2-(3,5-difluorophenyl)-1-(2-(4-oxo-3-(trifluoromethyl)-5,6-dihydrocyclopenta[c]pyrazol-1(4H)-yl)acetamido)ethyl)pyridin-3-yl)-2-fluorobenzamide]	> 53200 nM	2%	
Cc1c(C(F)F)nn(CC(=O)N[C@@H](Cc2cc(F)cc(F)c2)c2ncccc2-c2ccc(F)c(C(N)=O)c2)c1C(F)F [Example 493, (S)-5-(2-(1-(2-(3,5-bis(difluoromethyl)-4-methyl-1H-pyrazol-1-yl)acetamido)-2-(3,5-difluorophenyl)ethyl)pyridin-3-yl)-2-fluorobenzamide]	33900 nM	48%	
NC(=O)c1cc(-c2cccnc2[C@H](Cc2cc(F)cc(F)c2)NC(=O)Cn2ccc3ccc(Cl)cc32)ccc1F [Example 494, (S)-5-(2-(1-(2-(6-chloro-1H-indol-1-yl)acetamido)-2-(3,5-difluorophenyl)ethyl)pyridin-3-yl)-2-fluorobenzamide]	10400 nM	17%	
CC(=O)c1c(C)n(CC(=O)N[C@@H](Cc2cc(F)cc(F)c2)c2ncccc2-c2cccc(C(N)=O)c2)c2ccccc12 [Example 495, (S)-3-(2-(1-(2-(3-acetyl-2-methyl-1H-indol-1-yl)acetamido)-2-(3,5-difluorophenyl)ethyl)pyridin-3-yl)benzamide]		85%	15500 nM
